What all share (assay type): biochemical
One assay deals with T1, HCMV polymerase (Human cytomegalovirus, UniProt P08546).
T1 construct: made in house; host or cells: recombinant baculovirus-infected SF-9 cells
The assay is described as follows: HCMV polymerase scintillation proximity assay (SPA). Here is the method: The HCMV polymerase assay is performed using a scintillation proximity assay (SPA) as described in several references, such as N. D. Cook, et al., Pharmaceutical Manufacturing International, pages 49-53 (1992); KY Takeuchi, Laboratory Practice, September issue (1992); U.S. Pat. No. 4,568,649 (1986); which are incorporated by reference herein. Reactions are performed in 96-well plates. The assay is conducted in 100 yl volume with 5.4 mM HEPES (pH 7.5), 11.7 mM KCl, 4.5 mM MgCl2, 0.36 mg/ml BSA, and 90 nM ^3H-dTTP. Assays are run with and without CHAPS, (3-[(3-Cholamidopropyl)-dimethylammonio]-1-propane-sulfonate) at a final concentration of 2 mM. HCMV polymerase is diluted in enzyme dilution buffer containing 50% glycerol, 250 mM NaCl, 10 mM HEPES (pH 7.5), 100 μg/ml BSA, and 0.01% sodium azide. The HCMV polymerase, which is expressed in recombinant baculovirus-infected SF-9 cells and purified according to literature procedures, is added at 10% (or 10 μl) of the final reaction volume, i.e., 100 μl. Compounds are diluted in 50% DMSO and 10 μl are added to each well. Control wells contain an equivalent concentration of DMSO. Unless noted otherwise, reactions are initiated via the addition of 6 nM biotinylated poly(dA)-oligo(dT) template/primer to reaction mixtures containing the enzyme, substrate, and compounds of interest. Plates are incubated in a 25° C. or 37° C. H2O bath and terminated via the addition of 40 μl/reaction of 0.5 M EDTA (pH 8) per well. Reactions are terminated within the time-frame during which substrate incorporation is linear and varied depending upon the enzyme and conditions used, i.e., 30 min. for HCMV polymerase. Ten (10) μl of streptavidin-SPA beads (20 mg/ml in PBS/10% glycerol) are added following termination of the reaction. Plates are incubated 10 min. at 37° C., then equilibrated to room temperature, and counted on a Packard Topcount. Linear regressions are performed and IC50's are calculated using computer software.
A modified version of the above HCMV polymerase assay is performed as described above, but with the following changes: Compounds are diluted in 100% DMSO until final dilution into assay buffer. In the previous assay, compounds are diluted in 50% DMSO. 4.5 mM Dithiothreitol (DTT) is added to the polymerase buffer.
All results are listed as Polymerase IC50 ([…]) values. In Table 1, the term “n.d.” refers to activity data not determined.

The next assay concerns the target HSV polymerase (Human herpesvirus 1, UniProt P04293). The assay is described as follows: HSV polymerase assay (Table 1). The note with it: HSV polymerase; read-out: Polymerase IC50 HSV.
The next assay deals with VZV polymerase (Varicella-zoster virus, UniProt P09252). As to the kind of experiment: VZV polymerase assay (Table 1). To be noted: VZV polymerase; read-out: Polymerase IC50 VZV.
Where [1] appears, read: HCMV polymerase, SPA, read-out: Polymerase IC50 HCMV.

Where two headings read alike, the source gives them in different places.

By IC50 is commonly meant the concentration that gives 50% inhibition.

HSV polymerase, sequence (P04293 whole entry): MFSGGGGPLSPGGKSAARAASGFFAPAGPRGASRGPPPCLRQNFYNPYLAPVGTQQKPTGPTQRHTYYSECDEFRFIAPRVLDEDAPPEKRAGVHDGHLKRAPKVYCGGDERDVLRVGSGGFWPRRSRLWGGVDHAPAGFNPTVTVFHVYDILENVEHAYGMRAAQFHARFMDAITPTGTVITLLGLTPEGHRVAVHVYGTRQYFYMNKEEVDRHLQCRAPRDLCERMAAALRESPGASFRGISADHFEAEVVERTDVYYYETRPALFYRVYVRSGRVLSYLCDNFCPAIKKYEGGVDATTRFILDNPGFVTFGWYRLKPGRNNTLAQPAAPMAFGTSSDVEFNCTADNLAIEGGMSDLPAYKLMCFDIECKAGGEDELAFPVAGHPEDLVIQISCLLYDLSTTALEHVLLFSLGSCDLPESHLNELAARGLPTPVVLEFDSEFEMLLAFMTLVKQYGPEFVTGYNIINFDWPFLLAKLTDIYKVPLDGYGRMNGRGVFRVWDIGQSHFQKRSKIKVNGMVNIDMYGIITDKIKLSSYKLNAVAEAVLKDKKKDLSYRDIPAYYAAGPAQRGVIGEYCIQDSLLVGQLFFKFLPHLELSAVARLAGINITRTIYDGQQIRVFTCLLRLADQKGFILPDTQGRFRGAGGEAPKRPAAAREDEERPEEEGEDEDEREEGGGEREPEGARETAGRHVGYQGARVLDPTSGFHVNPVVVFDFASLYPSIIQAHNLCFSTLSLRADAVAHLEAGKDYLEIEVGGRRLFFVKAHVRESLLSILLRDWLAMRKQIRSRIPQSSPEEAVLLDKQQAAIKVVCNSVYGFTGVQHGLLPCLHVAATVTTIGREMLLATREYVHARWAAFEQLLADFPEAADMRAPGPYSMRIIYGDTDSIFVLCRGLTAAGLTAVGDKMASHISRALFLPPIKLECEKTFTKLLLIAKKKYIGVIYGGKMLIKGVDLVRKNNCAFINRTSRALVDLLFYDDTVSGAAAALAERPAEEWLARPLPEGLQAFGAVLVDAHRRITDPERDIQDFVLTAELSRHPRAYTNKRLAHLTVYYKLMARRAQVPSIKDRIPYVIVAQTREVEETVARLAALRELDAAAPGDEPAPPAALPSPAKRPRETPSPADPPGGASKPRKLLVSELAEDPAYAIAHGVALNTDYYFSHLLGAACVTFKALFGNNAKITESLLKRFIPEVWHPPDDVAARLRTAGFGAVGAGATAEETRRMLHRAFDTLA
T1 sequence (P08546 whole entry): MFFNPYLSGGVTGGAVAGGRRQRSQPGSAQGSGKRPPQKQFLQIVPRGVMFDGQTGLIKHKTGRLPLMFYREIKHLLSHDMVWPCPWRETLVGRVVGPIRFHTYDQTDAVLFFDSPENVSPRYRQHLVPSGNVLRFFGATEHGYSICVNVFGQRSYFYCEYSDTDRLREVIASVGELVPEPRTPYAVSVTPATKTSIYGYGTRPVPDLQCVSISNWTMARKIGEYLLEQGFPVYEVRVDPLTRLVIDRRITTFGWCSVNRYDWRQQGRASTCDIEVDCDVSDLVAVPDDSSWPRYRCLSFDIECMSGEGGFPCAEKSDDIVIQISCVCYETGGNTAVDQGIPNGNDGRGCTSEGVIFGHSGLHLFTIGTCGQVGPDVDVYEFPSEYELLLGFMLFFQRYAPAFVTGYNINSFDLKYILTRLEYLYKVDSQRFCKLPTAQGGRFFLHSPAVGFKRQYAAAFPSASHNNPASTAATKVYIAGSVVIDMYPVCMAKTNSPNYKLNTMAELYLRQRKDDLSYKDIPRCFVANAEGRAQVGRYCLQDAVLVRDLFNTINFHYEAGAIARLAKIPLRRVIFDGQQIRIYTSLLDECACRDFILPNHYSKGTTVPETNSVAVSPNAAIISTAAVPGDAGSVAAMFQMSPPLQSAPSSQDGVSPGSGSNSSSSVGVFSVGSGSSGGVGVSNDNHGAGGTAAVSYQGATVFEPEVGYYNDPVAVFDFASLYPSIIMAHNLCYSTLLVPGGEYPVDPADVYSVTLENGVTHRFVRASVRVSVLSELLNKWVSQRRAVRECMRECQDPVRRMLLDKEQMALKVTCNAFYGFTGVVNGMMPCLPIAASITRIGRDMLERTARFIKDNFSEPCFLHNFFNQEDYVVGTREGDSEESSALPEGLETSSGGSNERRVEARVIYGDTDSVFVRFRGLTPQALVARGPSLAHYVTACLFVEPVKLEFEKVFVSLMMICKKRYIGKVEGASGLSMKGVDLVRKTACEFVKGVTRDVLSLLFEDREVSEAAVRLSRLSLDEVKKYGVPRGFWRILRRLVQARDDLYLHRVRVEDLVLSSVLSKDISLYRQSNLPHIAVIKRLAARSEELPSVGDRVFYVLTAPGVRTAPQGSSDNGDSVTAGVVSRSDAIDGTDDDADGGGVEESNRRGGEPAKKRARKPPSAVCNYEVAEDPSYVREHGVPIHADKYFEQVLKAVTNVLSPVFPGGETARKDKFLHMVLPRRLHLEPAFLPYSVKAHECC
VZV polymerase, sequence (P09252 whole entry): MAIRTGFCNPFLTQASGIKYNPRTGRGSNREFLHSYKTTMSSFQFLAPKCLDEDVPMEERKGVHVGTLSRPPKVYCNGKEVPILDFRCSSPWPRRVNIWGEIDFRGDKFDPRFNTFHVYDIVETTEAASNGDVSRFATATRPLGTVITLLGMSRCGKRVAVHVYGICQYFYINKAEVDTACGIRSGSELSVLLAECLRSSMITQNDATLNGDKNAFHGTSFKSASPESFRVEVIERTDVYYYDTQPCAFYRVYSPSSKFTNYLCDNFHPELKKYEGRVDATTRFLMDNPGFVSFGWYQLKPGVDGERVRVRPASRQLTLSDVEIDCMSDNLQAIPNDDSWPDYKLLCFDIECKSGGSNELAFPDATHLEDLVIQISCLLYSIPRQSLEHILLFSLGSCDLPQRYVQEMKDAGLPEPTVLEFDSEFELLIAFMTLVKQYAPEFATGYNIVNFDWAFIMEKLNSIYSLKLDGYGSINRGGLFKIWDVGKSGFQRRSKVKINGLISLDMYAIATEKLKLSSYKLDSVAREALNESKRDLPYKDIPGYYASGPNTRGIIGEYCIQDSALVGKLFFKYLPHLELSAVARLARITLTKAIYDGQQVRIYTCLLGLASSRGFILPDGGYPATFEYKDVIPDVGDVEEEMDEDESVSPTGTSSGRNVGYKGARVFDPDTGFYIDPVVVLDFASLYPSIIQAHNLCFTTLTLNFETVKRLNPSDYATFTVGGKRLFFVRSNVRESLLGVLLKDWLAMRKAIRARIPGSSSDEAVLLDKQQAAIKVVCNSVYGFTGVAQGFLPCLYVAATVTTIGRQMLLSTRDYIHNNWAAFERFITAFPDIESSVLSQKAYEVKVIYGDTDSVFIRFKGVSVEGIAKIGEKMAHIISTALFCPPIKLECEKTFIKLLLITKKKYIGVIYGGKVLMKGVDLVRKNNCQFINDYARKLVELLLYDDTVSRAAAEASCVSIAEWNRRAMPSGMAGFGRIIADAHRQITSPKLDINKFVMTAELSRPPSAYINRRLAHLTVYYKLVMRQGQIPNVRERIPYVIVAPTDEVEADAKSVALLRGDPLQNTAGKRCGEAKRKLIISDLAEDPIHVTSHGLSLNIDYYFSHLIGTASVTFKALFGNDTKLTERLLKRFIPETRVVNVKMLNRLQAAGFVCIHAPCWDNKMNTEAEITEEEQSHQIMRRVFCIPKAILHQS

Take `CN(Cc1cc2c(=O)c(C(=O)NCc3ccc(Cl)cc3)cn(C)c2s1)CC(O)c1ccco1` (racemic) [Example 1, rac-N-(4-Chlorobenzyl)-2-(((2-(2-furyl)-2-hydroxyethyl)(methyl)amino)methyl)-7-methyl-4-oxo-4,7-dihydrothieno[2,3-b]pyridine-5-carboxamide]: the IC50 at HCMV polymerase (setting [1]) stood at 0.08 µM; on HSV polymerase, 0.22 µM; on VZV polymerase, 0.06 µM.
On the same counts, the results for `CN(Cc1cc2c(=O)c(C(=O)NCc3ccc(Cl)cc3)cn(C)c2s1)CC(O)c1cccs1` (racemic) [Example 6, rac-N-(4-Chlorobenzyl)-2-(((2-hydroxy-2-thien-2-ylethyl)(methyl)amino)methyl)-7-methyl-4-oxo-4,7-dihydrothieno[2,3-b]pyridine-5-carboxamide] are 0.17 µM, 0.47 µM and 0.15 µM.
Regarding `CCCn1cc(C(=O)NCc2ccc(Cl)cc2)c(=O)c2cc(CN(C)CC(O)c3cc4ccccc4o3)sc21` (racemic) [Example 23, rac-2-(((2-(1-Benzofuran-2-yl)-2-hydroxyethyl)(methyl)amino)methyl)-N-(4-chlorobenzyl)-7-propyl-4-oxo-4,7-dihydrothieno[2,3-b]pyridine-5-carboxamide], at HCMV polymerase (setting [1]), the IC50 was 0.26 µM.
The same measure, in the same setting: the figure for `CN(Cc1cc2c(=O)c(C(=O)NCc3ccc(Cl)cc3)cn(CC(O)CO)c2s1)CC(O)c1cc2ccccc2o1` (racemic) [Example 25, rac-2-(((2-(1-Benzofuran-2-yl)-2-hydroxyethyl)(methyl)amino)methyl)-N-(4-chlorobenzyl)-7-(2,3-dihydroxypropyl)-4-oxo-4,7-dihydrothieno[2,3-b]pyridine-5-carboxamide] is 1.8 µM.
Compound `CN(Cc1cc2c(=O)c(C(=O)NCc3ccc(Cl)cc3)cn(CCCO)c2s1)CC(O)c1cc2ccccc2o1` (racemic) [Example 28, rac-2-(((2-(1-Benzofuran-2-yl)-2-hydroxyethyl)(methyl)amino)methyl)-N-(4-chlorobenzyl)-7-(3-hydroxypropyl)-4-oxo-4,7-dihydrothieno[2,3-b]pyridine-5-carboxamide] gave a 50% inhibitory concentration (IC50) against HCMV polymerase of 0.3 µM.
On to `CN(Cc1cc2c(=O)c(C(=O)NCc3ccc(Cl)cc3)cn(CCO)c2s1)CC(O)c1cc2ccccc2o1` (racemic) [Example 29, rac-2-(((2-(1-Benzofuran-2-yl)-2-hydroxyethyl)(methyl)amino)methyl)-N-(4-chlorobenzyl)-7-(2-hydroxyethyl)-4-oxo-4,7-dihydrothieno[2,3-b]pyridine-5-carboxamide], for which, on HCMV polymerase (setting [1]), the IC50 turned out to be 0.6 µM.
Still for that read-out and setting: the figure for `COCCn1cc(C(=O)NCc2ccc(Cl)cc2)c(=O)c2cc(CN(C)C[C@@H](O)c3ccco3)sc21` [Example 21, N-(4-Chlorobenzyl)-2-((((2R)-2-(2-furyl)-2-hydroxyethyl)(methyl)amino)methyl)-7-(2-methoxyethyl)-4-oxo-4,7-dihydrothieno[2,3-b]pyridine-5-carboxamide] is 0.35 µM.
With `CN(Cc1cc2c(=O)c(C(=O)NCc3ccc(Cl)cc3)cn(C)c2s1)CC(O)c1ccc(Cl)o1` (centres unmarked) [Example 33, N-(4-Chlorobenzyl)-2-(((2-(5-chloro-2-furyl)-2-hydroxyethyl)(methyl)amino)-methyl)-7-methyl-4-oxo-4,7-dihydrothieno[2,3-b]pyridine-5-carboxamide], the IC50 at HCMV polymerase (setting [1]) worked out at 0.02 µM; at HSV polymerase, 0.08 µM.
As to `CN(Cc1cc2c(=O)c(C(=O)NCc3ccc(Cl)cc3)cn(CCOCCO)c2s1)C[C@@H](O)c1ccco1` [Example 35, N-(4-Chlorobenzyl)-2-((((2R)-2-(2-furyl)-2-hydroxyethyl)(methyl)amino)methyl)-7-(2-(2-hydroxyethoxy)ethyl)-4-oxo-4,7-dihydrothieno[2,3-b]pyridine-5-carboxamide], the IC50 on HCMV polymerase (setting [1]) turned out to be 0.56 µM.
